These results are taken from ChEMBL document CHEMBL3272268 (J Med Chem, 1978).

The experiment has as its target Serotonin (5-HT) receptor. As to the kind of experiment: Competitive antagonist activity at 5-HT serotonin receptor in Sprague-Dawley rat stomach fundus model assessed as inhibition of 5-HT-induced contractile response.

The pA2 is the negative logarithm of the molar antagonist concentration that doubles the agonist concentration needed for the same response. In the case of `COc1ccc(OC)c(CCCN(C)C)c1`, the pA2 was 5.45.
